Results from patent US20250000837A1, “METHOD FOR TREATING RETINAL DEGENERATION” (SMILEBIOTEK ZHUHAI LIMITED, priority 2021, published 2025).

How the values were obtained:
[1] = tested on: Crb1^rd8/rd8 mouse suffering from fundus degenerative retinopathy; assay: Intragastric administration therapy of Crb1^rd8/rd8 mouse suffering from fundus degenerative retinopathy; count of fundus light spots; type: in vivo; conditions: for Eyes with slight decrease of crystalline lens transparency (fundus light spots cannot be observed clearly): 0.3 g/kg intragastric; for Change of spots 4 weeks after drug administration / Change of spots 2 weeks after drug administration: change of number of fundus light spots, Crb1^rd8/rd8 mouse, mean ± s; for Change of spots 4 weeks after drug administration: 0.3 g/kg intragastric once every other day for 4 weeks, P = 0.0005 vs model control group; for Change of spots 2 weeks after drug administration: 0.3 g/kg intragastric once every other day, P = 0.1518 vs model control group
Method: The mouse is anaesthetized and pupils are dilated. A cornea remains moist by applying hydroxypropyl methylcellulose eye drops regularly. A mouse fundus photo is obtained by using a Micron IV mouse fundus camera (Phoenix Research Laboratories, Inc., Pleasanton, CA, USA).
When a sample for test is prepared, 4 mL of castor oil which is already autoclaved is measured, 1.2 g of compound 6 powder is weighted, 1-2 mL of castor oil is added, full grinding is performed, a ground drug and residual castor oil are all transferred to a 50 mL tube with 36 mL ultrapure water to be oscillated and uniformly mixed for still standing overnight, so a compound 6 suspension with a concentration being 30 mg/mL is prepared, and the prepared drug liquid is labeled, saved at a normal temperature and used up within a month.
• Species and strains: Crb1^rd8/rd8 mouse • Grade: SPF grade • Quantity and gender: 18 mice, either gender • Weight range: 16-24 g • Supply unit: Gempharmatech Co., Ltd.
When drug administration starts, a healthy one-month-old Crb1^rd8/rd8 mouse is selected for an experiment.
Animals are hierarchically divided according to weights and then randomly divided into a model control group and a compound 6 group.
Drug administration route and method: intragastric administration, 10.0 mL/kg weight
Drug administration frequency and time limit: once every other day, for 4 weeks
Dosage of the compound 6 is 0.3 g/kg weight for the mouse and is converted according to previous clinical medication.
One-month-old Crb1^rd8/rd8 mice are randomly divided into the model control group and the compound 6 drug administration group. A solvent or a compound 6 drug is administered intragastrically to the animals, a dosage of the compound 6 is 0.3 g/kg, once every other day, continuous drug administration for 4 weeks. The number of fundus light slots 2 weeks and 4 weeks after the mouse is administered intragastrically is recorded for analysis and comparison.
A change of the number of fundus light spots of the mice at each time point after drug administration is used as a parameter, and SPSS software is used for the statistic analysis. A statistical result is represented by X+s; and an inspection level=0.05, and an average of experiment data and statistically processed data remain 2 decimal places.

[2] = tested on: drusen-like lesion in retinal tissue of a macaque; conditions: administered to vitreous humor; cited from earlier work

SMILES | Inhibition of fundus degenerative retinopathy ([1]; Crb1^rd8/rd8 mice, dosage of 0.3 g/kg) | Eyes with slight decrease of crystalline lens transparency (fundus light spots cannot be observed clearly) ([1]; Week 2 of the experiment, attributed to anesthesia, correlation with compound not excluded) | Eyes with slight decrease of crystalline lens transparency (fundus light spots cannot be observed clearly) ([1]; Week 4 of the experiment, 1/18 eye also in model control group) | Change of spots 4 weeks after drug administration [1] | Change of spots 4 weeks after drug administration ([1]; listed as compound 6) | Change of spots 2 weeks after drug administration [1] | Change of spots 2 weeks after drug administration ([1]; listed as compound 6) | Size of the drusen-like lesion in retinal tissue compared with a control [2]
CCCCCCCCOC(=O)c1cc(O)c(O)c(O)c1 [Compound 6, octyl gallate] | effectively inhibit | 2/18 | 1/18 | −3.63 ± 4.06 | −3.63±4.06 | 1.31 ± 3.18 | 1.31±3.18 | –
CN[C@H](CC(C)C)C(=O)N[C@H]1C(=O)N[C@@H](CC(N)=O)C(=O)N[C@H]2C(=O)N[C@H]3C(=O)N[C@H](C(=O)N[C@H](C(=O)O)c4cc(O)cc(O)c4-c4cc3ccc4O)[C@H](O)c3ccc(c(Cl)c3)Oc3cc2cc(c3O[C@@H]2O[C@H](CO)[C@@H](O)[C@H](O)[C@H]2O[C@H]2C[C@](C)(N)[C@H](O)[C@H](C)O2)Oc2ccc(cc2Cl)[C@H]1O [vancomycin] | – | – | – | – | – | – | – | reduce a size of the drusen-like lesion
